Experimental data published in patent publication US10907153B2, “Treatment of heart disease by inhibtion of the action of muscle A-kinase anchoring protein (mAKAP)” (priority 2017, dated 2021).

Legend:
[1] = test system: neonatal rat ventricular myocytes; test: Hypertrophy of cultured neonatal rat ventricular myocytes (cross-section area, ANF expression); assay type: cell-based; settings: for agonist-induced myocyte hypertrophy: pan-RSK inhibitors, neonatal myocytes
Procedure: Neonatal rat myocytes isolation and culture: 1-3 day old Sprague-Dawley rats were decapitated and the excised hearts placed in 1×ADS Buffer (116 mmol/L NaCl, 20 mmol/L HEPES, 1 mmol/L NaH2PO4, 5.5 mmol/L glucose, 5.4 mmol/L KCl, 0.8 mmol/L MgSO4, pH 7.35). The atria were carefully removed and the blood washed away. The ventricles were minced and incubated with 15 mL 1×ADS Buffer containing 3.3 mg type II collagenase (Worthington, 230 U/mg) and 9 mg Pancreatin (Sigma) at 37° C. while shaking at 80 RPM. After 15 minutes, the dissociated cardiac myocytes were separated by centrifugation at 50×g for 1 minute, resuspended in 4 mL horse serum and incubated 37° C. with occasional agitation. The steps for enzymatic digestion and isolation of myocytes were repeated 10-12 times to maximize yield. The myocytes were pooled and spun down again at 50×g for 2 minutes and resuspended in Maintenance Medium (DMEM:M199, 4:1) supplemented with 10% horse serum and 5% fetal bovine serum. To remove any contaminating fibroblasts, the cells were pre-plated for 1 hour before plating on gelatin-coated tissue culture plasticware. This procedure yields >90% pure cardiac myocytes. After 1 day in culture, the media was changed to maintenance medium containing 0.1 mmol/L bromodeoxyuridine to suppress fibroblast growth.
Experiments were initiated 1 day after myocyte isolation. Adenoviral infection was performed by addition of adenovirus (multiplicity of infection=5-50) to the media. Plasmids and siRNA oligonucleotides were transfected using Transfast (Promega) and Dharmafect (Thermofisher), respectively, as recommended by the manufacturers using cells cultured in maintenance medium supplemented with 4% horse serum. Starting the day after gene transduction, the cells were treated for as long as 2 days, as indicated for each experiment. […]
Morphometry: Morphometric data was acquired using IPLab Software. […] For adult mouse cardiac myocytes, the maximum lengths perpendicular (width) or parallel (length) to the myofibrils were measured for >100 freshly dissociated myocytes per heart.

[2] = test system: Noonan syndrome mouse model; settings: Wu 2011; cited from earlier work
NHE1 = settings: Cuello 2007; cited from earlier work
RSK = RSK activation in neonatal rat ventricular myocytes (pan-RSK S218 phospho-specific antibody); assay type: cell-based; settings: α-adrenergic stimulation, MEK1/2- and MEK5-dependent
Source text: RSK family members can be activated in most cell types by ERK, but not c-Jun N-terminal kinases or p38 (Anjum 2008). ERK phosphorylation is permissive for PDK1 phosphorylation of the RSK N-terminal kinase domain, such that PDK1 phosphorylation of RSK S^218 is indicative of full activation of the enzyme (FIG. 4A of U.S. Pat. No. 9,132,174). […] The α-adrenergic stimulation with phenylephrine (PE) induced RSK phosphorylation 3-fold by both MEK1/2-dependent (that activates ERK1/2) and MEK5-dependent (that activates ERK5) mechanisms (FIG. 22 of U.S. Pat. No. 9,132,174).

RSK3 and mAKAPβ = test: Co-immunoprecipitation of endogenous RSK3 with mAKAPβ in neonatal myocytes; assay type: cell-based, rat; settings: expressed in neonatal myocytes
Procedure: Immunoprecipitations: HEK293 and COS-7 cells were transfected with Lipofectamine 2000 (Invitrogen) or Polyethylenimine “Max” (Polysciences). Cells (including myocytes) were lysed in buffer (20 mmol/L HEPES, pH 7.4, 150 mmol/L NaCl, 5 mmol/L EDTA, 0.5% Triton, 50 mmol/L NaF, 1 mmol/L sodium orthovanadate, 1 mmol/L DTT, and protease inhibitors). After centrifugation at 10,000×g for 10 minutes at 4° C., the clarified extracts were used for immunoprecipitation using appropriate antibodies (10 μg purified antibody or 1-5 μL whole serum) and 20 μL protein G sepharose (Millipore, Fastflow) for 3 hours to overnight at 4° C. The beads were washed 3-5 times with lysis buffer, and the immunoprecipitated proteins were eluted with 1× Laemmli buffer for western blotting. Western blots were developed using horseradish peroxidase-conjugated donkey secondary antibodies, Supersignal West Chemiluminescent Substrates (Thermo Scientific) and X-ray film or a Fujifilm LAS-3000 imaging system.
B. Transfected myocytes expressing GFP or GFP-RBD (green) were stained with α-actinin (blue) and ANF (red) antibodies. Bar=20 μm. C. Cross-section area of myocytes. n=5. D. Fraction of myocytes expressing ANF. n=3. * p-values comparing to GFP-expressing samples. † p-values comparing to no agonist control.

wildtype mice = test: Transverse aortic constriction (2 week TAC) after AAV9 injection; assay type: in vivo, mouse; settings: AAV9 injected into neonatal mice, 2 week TAC at 8 weeks of age
Source text: Transverse Aortic Constriction: All tools were sterilized with a Germinator 500 Dry Sterilizer and Betadine Solution (10% povidone-iodine topical solution). Anesthesia was induced with 5% isoflurane and maintained with 2% isoflurane and 100% oxygen at a flow rate of 1.5 L/min using a SurgiVet flow regulator via nose cone. Loss of consciousness was verified by toe pinch. Mouse fur over the left chest and sternum was removed with a calcium hydroxide lotion (e.g. Nair), and the surgical site was sterilized with betadine. The skin was incised exposing the pectoralis muscle and the second left intercostal space. […] The lobes of the thymus were retracted to reveal the transverse aortic arch as well as the right innominate and left common carotid arteries. […]
Echocardiography: Mice minimally anesthetized with 1-2% isoflurane were studied using a Vevo 770®, High-Resolution Imaging System (VisualSonics). The pressure gradient following TAC was calculated from the pulse wave Doppler velocity at the point of ligation as follows: P=4v^2; P=the induced pressure gradient (in mmHg) and v=the velocity across the constriction (in m/s).^7
AAV9 containing the indicated CIS plasmid encoding myc-GFP-mAKAP 1694-1833 were injected into neonatal wildtype mice. 2 week TAC was performed and analyzed as above at 8 weeks of age. […]

For CC(C)CCN1c2nc(Nc3cc(F)c(O)c(F)c3)ncc2N(C)C(=O)C1C (centres unmarked) [BI-D1870], the agonist-induced myocyte hypertrophy [1] was “inhibited”.

In the case of O=C(NOC[C@H](O)CO)c1ccc(F)c(F)c1Nc1ccc(I)cc1F [PD0325901], the “progression of cardiac hypertrophy cardiomyopathy and other Noonan characteristics” value [2] is given as “attenuated progression”.

In the case of CC(=O)OC1C(C)OC(Oc2c(-c3ccc(O)cc3)oc3cc(O)cc(O)c3c2=O)C(O)C1OC(C)=O (centres unmarked) [SL0101], the agonist-induced myocyte hypertrophy [1] is reported as “inhibited”.

For Cc1ccc(-c2c(C(=O)CF)n(CCCO)c3ncnc(N)c23)cc1 [fmk], the “α-adrenergic-induced NHE1 phosphorylation” value (NHE1) is given as “blocked”.

CNC[C@H](O)c1cccc(O)c1 [phenylephrine] showed an RSK phosphorylation induced (RSK) of 3 fold.

B1: green fluorescent protein—mAKAP RBD fusion protein: GFP fused to the mAKAP RSK3 binding domain (mAKAP residues 1694 to 1833), an anchoring disruptor (protein)
chain: ELSLCSEDIVLHKNKIPESNASFRKRLNRSVADESDVNVSMIVNVSCTSACTDDEDDSDLLSSSTLTLTEEELCLKDEDDDSSIATDDEIYEESNLMSGLDYIKNELQTWIRPKLSLTREKKRSGVTDEIKVNKDGGGNE
modifications: left off: small tags and cut ends; large carriers
With B1 the PE-induced hypertrophy ([1]; expressed in neonatal myocytes, phenylephrine) was “markedly inhibited” and the “association of endogenous RSK3 and mAKAPβ” value (RSK3 and mAKAPβ) was “competed the association”.

B2: myc-GFP-mAKAP 1694-1833: myc-GFP-tagged mAKAP 1694-1833 expressed in vivo from AAV9 (protein)
chain: ELSLCSEDIVLHKNKIPESNASFRKRLNRSVADESDVNVSMIVNVSCTSACTDDEDDSDLLSSSTLTLTEEELCLKDEDDDSSIATDDEIYEESNLMSGLDYIKNELQTWIRPKLSLTREKKRSGVTDEIKVNKDGGGNE
modifications: left off: small tags and cut ends; large carriers
notes: myc-GFP-tagged mAKAP 1694-1833 expressed in vivo from AAV9
For B2, the “concentric hypertrophy in vivo in the adult heart” value (wildtype mice) was “inhibited concentric hypertrophy”.
